Results taken from ChEMBL document CHEMBL1152041, “Design, Synthesis and Pharmacology of Cannabimimetic Indoles” (Bioorg Med Chem Lett, 1994).

Tests used:
Cannabinoid receptor = Cannabinoid receptor (Homo sapiens, UniProt P34972+P21554); assay: Binding affinity was determined in vitro against cannabinoid receptor by ability to displace [3H]CP-55940; format: protein assay
Mus musculus = assay: Tested in vivo for cannabimimetic activity in mouse; format: functional

SMILES | Ki (Cannabinoid receptor) [nM] | ED50 (Mus musculus) [µmol/kg]
CC(=O)c1c(C)n(CCN2CCOCC2)c2ccccc12 | > 10000 | > 350
CCCCC[C@H](C)n1c(C)c(C(=O)c2cccc3ccccc23)c2ccccc21 | 72 | 
CCCCCCCn1c(C)c(C(=O)c2cccc3ccccc23)c2ccccc21 | > 10000 | > 189
CC(C)=CC(=O)c1c(C)n(CCN2CCOCC2)c2ccccc12 | > 10000 | > 103
Cc1c(C(=O)c2cccc3ccccc23)c2ccccc2n1CCc1ccccc1 | 1250 | > 257
CCCCCn1c(C)c(C(=O)c2cccc3ccccc23)c2ccccc21 | 9.5 | 2.62
CCCCn1c(C)c(C(=O)c2cccc3ccccc23)c2ccccc21 | 22 | 
Cc1c(C(=O)c2cccc3ccccc23)c2ccccc2n1CCC1CCCCC1 | 46 | 65.8
CCCCC[C@@H](C)n1c(C)c(C(=O)c2cccc3ccccc23)c2ccccc21 | 81 | 21.5
CCCCCCn1c(C)c(C(=O)c2cccc3ccccc23)c2ccccc21 | 48 | 14
CCCCCC(C)n1c(C)c(C(=O)c2cccc3ccccc23)c2ccccc21 (racemic) | 33 | 35.6
CCCCCCC(C)(C)c1ccc([C@@H]2C[C@H](O)CC[C@H]2CCCO)c(O)c1 [CP-55940] |  | 0.55
CCCCCc1cc(O)c2c(c1)OC(C)(C)[C@@H]1CCC(C)=C[C@@H]21 [DRONABINOL] |  | 4.7
Cc1c(C(=O)c2cccc3ccccc23)c2cccc3c2n1[C@H](CN1CCOCC1)CO3 [WIN-552122] |  | 6.53
